According to PMC6327985, “Soyasaponins from Zolfino bean as aldose reductase differential inhibitors” (Journal of Enzyme Inhibition and Medicinal Chemistry, 2018):
Read-outs that look alike come from different tables or passages of the source.

Target: T1, human recombinant AKR1B1 (hAKR1B1) (Homo sapiens, UniProt P15121)
T1 construct: made in house
Assay: Assay of aldose reductase: hAKR1B1-catalysed NADPH-dependent reduction of L-idose or HNE, decrease in absorbance at 340 nm
Type: biochemical
Conditions: for IC50: 8 mU hAKR1B1, authentic standard; for K’i (ternary enzyme-substrate-inhibitor complex dissociation constant) / Ki: Hanes-Woolf analysis, mean ± SEM; for Ki: read-out: Ki (binary enzyme-inhibitor complex dissociation constant)
Experimental: The AKR1B1 activity was determined at 37 °C as previously described, monitoring the decrease in absorbance at 340 nm linked to NADPH oxidation (ε340=6.22 mM^−1 cm^−1) through a Biochrom Libra S60 spectrophotometer. In a 0.25 M sodium phosphate buffer pH 6.8, the standard assay mixture contained 0.18 mM NADPH, 0.4 M ammonium sulphate, 0.5 mM EDTA and 4.7 mM GAL. One unit of enzyme activity is the amount that catalyses the conversion of 1 µmol of substrate/min in the above assay conditions. These assay conditions were also adopted to assess the effectiveness of inhibitors when L-idose or HNE were used, at the indicated concentrations, as substrates instead of GAL. Differential inhibition (DI) refers to the difference between the percentage inhibition observed using L-idose and HNE as substrates in the assay conditions indicated.
The human recombinant AKR1B1 (hAKR1B1) was expressed and purified to electrophoretic homogeneity as previously described. The purified enzyme (specific activity 5.3 U/mg) was stored at −80 °C in a 10 mM sodium phosphate buffer pH 7.0 containing 2 mM DTT and 30% (w/v) glycerol. Before use, the enzyme was extensively dialysed against a 10 mM sodium phosphate buffer pH 7.0.
The protein concentration was determined by the Coomassie blue staining method, using BSA as a standard protein. Statistical analysis was performed using the two-way ANOVA test carried out with Graphpad 6.0 software. IC50 determination was performed using standard statistical software (GraphPad Instat version 6.0, San Diego, CA). Results are reported as the mean of the values and the 95% confidence interval from at least three independent measurements.

[1] = substrate 0.04 mM HNE, read-out: IC50 for HNE reduction
[2] = substrate 0.8 mM L-idose, read-out: IC50 for L-idose reduction

Structure (SMILES) | IC50 [1] | IC50 [2] | K’i (ternary enzyme-substrate-inhibitor complex dissociation constant) (substrate HNE) | K’i (ternary enzyme-substrate-inhibitor complex dissociation constant) (substrate L-idose) | Ki (substrate L-idose) | inhibition model (with respect to HNE) | inhibition model (with respect to L-idose) | Ki (substrate HNE)
C[C@@H]1O[C@@H](O[C@H]2[C@H](O[C@H]3[C@H](O[C@H]4CC[C@@]5(C)[C@@H](CC[C@]6(C)[C@@H]5CC=C5[C@@H]7CC(C)(C)C[C@@H](O)[C@]7(C)CC[C@]56C)[C@@]4(C)CO)O[C@H](C(=O)O)[C@@H](O)[C@@H]3O)O[C@H](CO)[C@H](O)[C@@H]2O)[C@H](O)[C@H](O)[C@H]1O [SSBb, soyasaponin Bb (I)] | 360 µM | 170 µM | 248 ± 19 µM | 191 ± 11 µM | 176 ± 35 µM | uncompetitive | purely non-competitive inhibitor | –
CC1(C)C[C@@H](O)[C@]2(C)CC[C@]3(C)C(=CC[C@@H]4[C@@]5(C)CC[C@H](O[C@@H]6O[C@H](C(=O)O)[C@@H](O)[C@H](O)[C@H]6O[C@@H]6O[C@H](CO)[C@H](O)[C@H](O)[C@H]6O[C@@H]6O[C@H](CO)[C@@H](O)[C@H](O)[C@H]6O)[C@](C)(CO)[C@@H]5CC[C@]43C)[C@@H]2C1 [SSBa, soyasaponin Ba (V)] | 47 µM | 40 µM | 23 ± 4 µM | 24 ± 2 µM | 66 ± 17 µM | mixed inhibitor | mixed inhibitor | 65 ± 12 µM
